This note sets out measurements from patent publication US10123985B2, “Therapeutic strategies for treating mitochondrial disorders” (Whitehead Institute for Biomedical Research, priority 2015, dated 2018).

Entries after “also recorded” stand apart in the source; their conditions may differ.

Series [1] deals with 143B cells. Put plainly: 13C asparagine labelling, GCMS of aspartate and released asparagine. It is filed as cell-based. The procedure:
FIG. 26. […] (A) Proliferation rate was measured after 4 days in DMEM without pyruvate and the indicated media conditions. Untr; Untreated. AKB; 1 mM alpha-ketobutyrate. Asp; 20 mM aspartate. Asn; asparagine, with the indicated concentrations. (B) GCMS measurement of intracellular levels of aspartate after 24 hours from the indicated treatment conditions. Aspartate levels are shown as the log2 of the measured total ion count (TIC). (C) The proliferation rate from FIG. 26A and the aspartate levels from FIG. 26B were graphed against one another to show a correlation between aspartate levels and proliferation rate. Grey triangles are the untreated conditions, blue squares are the AKB conditions, and green dots are the 1 mM ASN conditions. (D) GCMS measurement of intracellular aspartate levels after a 24-hour incubation in untreated media or media treated with 1 mM ^13C asparagine. The bars are split to show the fraction of aspartate that is unlabeled (M+0) and the fraction of aspartate that is labeled with 4 ^13C carbons (M+4). (E) GCMS measurement of unlabeled (M+0) asparagine released into the media (de novo produced asparagine) after a 24-hour incubation in untreated media or media treated with 1 mM ^13C asparagine.
The mechanism by which extracellular asparagine treatment can restore intracellular aspartate levels was also investigated. First, we treated 143B cells with 1 mM asparagine containing four ^13C carbon atoms. […] The small fraction containing labeled aspartate was likely from ^13C aspartate contamination in the ^13C asparagine added to the media. […] One plausible mechanism by which providing the cells with extracellular asparagine would decrease intracellular aspartate consumption is through product inhibition of asparagine synthetase (ASNS) activity. Decreased ASNS activity would decrease aspartate consumption and therefore increased aspartate levels. To test this, we measured the release of unlabeled asparagine in the media of untreated cells or cells treated with 1 mM ^13C asparagine. […]

For series [2], the system named is 143B cells. Put plainly: Proliferation assay of wild-type 143B cells treated with respiration inhibitors. The series is classed as cell-based. The settings on record: asparagine. The protocol: (§1) 143B, A172, H1299, HeLa, U87 and MEF cells were cultured in Dulbecco's Modified Eagle's Medium (DMEM) (Gibco) supplemented with 10% fetal bovine serum (FBS) and penicillin-streptomycin. FL5.12 cells were cultured in the same medium and supplemented with 5 μg/mL recombinant mouse IL-3 (R&D Systems). 143B cybrid cell lines (WT Cybrid and CytB) were cultured in DMEM with 10% FBS, penicillin-streptomycin, and 0.1 mg/mL uridine. All cells incubated at 37° C. with 5% CO2.
(§2) Adherent cell lines growing in log phase were trypsinized, counted, and plated onto 6 well dishes (Corning) in 2 mL complete DMEM and incubated overnight. Initial seeding density was 2E4 cells per well for 143B, A172, H1299, HeLa, 143B WT Cybrid, and MEFs and 3E4 cells for 143B CytB and U87 cells. The following day, one plate of cells was counted to determine the initial cell count at the time of treatment. Cells were washed 2 times with 2 mL phosphate buffered saline (PBS) and 4 mL media premixed with the indicated treatments was added. FL5.12 cells, a suspension cell line, were washed 2 times in PBS and added directly to media containing the indicated treatments and 5 μg/mL recombinant mouse IL-3. Proliferation rate assay media was DMEM without pyruvate containing 10% dialyzed FBS, penicillin-streptomycin, and 0.1 mg/mL uridine, unless otherwise noted. For these cell lines at these seeding densities it was determined that for 4 days the cells maintained logarithmic proliferation (data not shown), therefore final cell counts were measured 4 days after treatment. Cells were counted using Cellometer Auto T4 Plus Cell Counter (Nexcelom Bioscience). Proliferation rate was determined using the following formula: Proliferation Rate (Doublings per day)=(log2(Final cell count (day 5)/Initial cell count (day 1))/4 (days)

Series [3] concerns 143B cells. Put plainly: Amino acid and TCA cycle metabolite GC-MS analysis, 143B cells. The series is classed as cell-based. Conditions: for TCA metabolite, aspartate and glutamate pool sizes: wild-type 143B cells, respiration inhibitor alone. The procedure:
143B and 143B CytB cells were seeded at 400,000 cells/well in 6 well dishes overnight. The following day, cells were washed 2 times in PBS and media was changed to proliferation assay media with or without the indicated treatments. […] Soluble content was then dried under nitrogen gas. Polar samples were derivatized and measured as detailed in (Lewis). Relative metabolite abundances were determined by integrating ion peak area (Metran) and normalized to norvaline internal extraction standard.

A further series deals with 143B CytB cells. Nature of the series: Proliferation assay of respiration-incompetent 143B CytB cybrid cells. Conditions: media supplemented with the substance; no pyruvate unless tested, uridine present. It is filed as cell-based. The procedure:
FL5.12 cells were cultured in the same medium and supplemented with 5 μg/mL recombinant mouse IL-3 (R&D Systems). […] All cells incubated at 37° C. with 5% CO2.
as §2, with “Initial seeding density was 2E4 cells per well for 143B, A172, H1299, HeLa, 143B WT Cybrid, and MEFs and 3E4 cells for 143B CytB and U87 cells.” left out, “For these cell lines at these seeding densities it was determined that for 4 days the cells maintained logarithmic proliferation (data not shown), therefore final cell counts were measured 4 days after treatment.” left out

A further series deals with Jurkat cells. Put plainly: Proliferation assay (Cell Titer Glo, 5 days) of wild type and knock-out Jurkat cells. Conditions: 5-day treatment. The series is classed as cell-based, human. The protocol: sgRNAs (oligonucleotide sequences are indicated above) were cloned into lentiCRISPR-v1 linearized with BsmBI by Gibson Assembly (NEB). sgRNA expressing vector along with lentiviral packaging vectors Delta-VPR and CMV VSVG were transfected into HEK-293T cells using the XTremeGene 9 transfection reagent (Roche). Similarly, for overexpression cell lines, cDNA vectors along with retroviral packaging vectors gag-pol and CMV VSV-G were transfected into HEK-293T cells. Media was changed 24 hours after transfection.
For orientation: In ATP-based viability assays light output follows the ATP content of the culture.

The subject of series [4] is A549 lung carcinoma xenografts. Put plainly: A549 xenograft study with metformin. It is filed as in vivo, nude mice. The protocol: FIG. 27. In vivo mitochondrial inhibition inhibits cellular proliferation and decreases intracellular growth rate. (A) A549 xenografts in nude mice were treated with varying doses of the mitochondrial inhibitor, metformin, once a day by oral gavage at the indicated concentrations. LCMS measurement of (B) serum and (C) tumor metformin concentration for the indicated metformin treatment conditions. (D) GCMS measurement of intracellular aspartate levels in the tumors following 10 days of the indicated treatment. Aspartate levels are shown as aspartate total ion count (TIC) normalized to leucine TIC.
An in vivo correlation between mitochondrial inhibition and growth inhibition, and further, a correlation between the degree of growth inhibition and intracellular aspartate levels were shown in a xenograft study. A549 lung carcinoma cells were xenografted into nude mice, and the cells were allowed to grow until they formed a tumor 50 mm^3 in volume. When the tumors reached 50 mm^3, the mice were randomly sorted into three groups and treated once a day by oral gavage with vehicle or the mitochondrial inhibitor metformin (500 mg/kg or 1500 mg/kg).

Series [5] deals with A172, H1299, HeLa, U87, FL5.12, and MEF cell lines. Put plainly: Proliferation assay of a panel of cell lines treated with respiration inhibitors. Conditions: respiration inhibitor alone. The series is classed as cell-based. The protocol:
as §1, §2

In series [6] the test system is Raji lymphoma and KMS-26 multiple myeloma cells. It is filed as cell-based, human. Conditions: 5-day treatment. The procedure:
[…]. Media was changed 24 hours after transfection.

Where [7] appears, read: 1 mM 13C asparagine, 24-hour incubation.
[8] abbreviates: metformin 500 mg/kg or 1500 mg/kg once a day by oral gavage.

With `NC(=O)C[C@H](N)C(=O)O` [^13C asparagine], in the series with 143B cells [1] (setting [7]), the Intracellular aspartate levels result was “did increase intracellular aspartate levels” and the “Labelling of intracellular aspartate pool” value is “nearly all of the intracellular aspartate pool was unlabeled (M+0)”.

For the molecule `NC(=O)C[C@H](N)C(=O)O` [asparagine], the “Proliferation of rotenone treated 143B cells” value in the series on 143B cells [2] (high doses of rotenone) was “not able to restore proliferation”; with 143B cells [2] (low doses of rotenone), “sufficient to restore proliferation; also recorded: restores intracellular aspartate levels and proliferation in rotenone treated cells”. For the same molecule, the “Restoration of intracellular aspartate compared to AKB” value in the series on 143B cells [3] (rotenone treated 143B cells, 1 mM asparagine) was “incomplete compared to AKB”. Besides, in the series with 143B cells [3] (rotenone treated 143B cells, 24 hours, AKB or 1 mM asparagine), the Intracellular aspartate levels entry was “increased intracellular aspartate; also recorded: restores intracellular aspartate levels and proliferation in rotenone treated cells”. Further, in the series with 143B cells [1] (1 mM 13C asparagine versus untreated, 24 hours), the “Release of unlabeled (de novo produced) asparagine into the media” value is recorded as “produce less asparagine”.

For the molecule `COC(=O)CCC(=O)C(=O)OC` [dimethyl α-ketoglutarate, reference compound], the “Proliferation rate of 143B CytB cells” value in the series on 143B CytB cells was “able to restore some proliferation to 143B CytB cells, albeit at a much lower capacity than aspartate”.

As to `Nc1nc2nc[nH]c2c(=O)[nH]1` [guanine, reference compound], in the series with 143B CytB cells, the “Proliferation rate of 143B CytB cells” value is recorded as “somewhat toxic”.

As for `O=c1[nH]cnc2nc[nH]c12` [hypoxanthine, reference compound], in the series with 143B CytB cells, the “Proliferation rate of 143B CytB cells” value is “no effect on proliferation”.

In the case of `CN(C)C(=N)N=C(N)N` [metformin], in the series with Jurkat cells, the “Sensitivity of GOT1-null versus wild-type cells to other ETC inhibitors” value is listed as “substantially more sensitive; also recorded: GOT1-null cells die”. Moreover, in series [4] (10 days of treatment, aspartate TIC normalized to leucine TIC), the “Normalized intracellular aspartate levels in tumors” value was “decrease in a dose-dependent manner”. Besides, in series [4] (escalating doses of metformin), the “Tumor concentration of metformin” value is recorded as “increased tumor concentration of metformin”. In series [4] (setting [8]), the “Serum concentrations of metformin” value was “at concentrations that would be therapeutically relevant and tolerable in humans”; the Tumor growth result is “dose dependently inhibited tumor growth”.

In the case of `CC[C@H]1/C=C/C=C/C[C@@H](C)[C@H](O)[C@@](C)(O)C(=O)[C@@H](C)[C@H](O)[C@@H](C)C(=O)[C@@H](C)[C@H](O)[C@@H](C)/C=C/C(=O)O[C@@H]2[C@H](C)[C@H](CC1)O[C@]1(CC[C@H](C)[C@H](C[C@@H](C)O)O1)[C@H]2C` [oligomycin, reference compound], the “Proliferation of cell line panel” value in series [5] is “blocked proliferation”. Moreover, the “TCA metabolite, aspartate and glutamate pool sizes” value (shortened to “TCA metabolite”) in the series on 143B cells [3] was “decreases in TCA metabolites and aspartate, but not glutamate”.

With `C/C=C(\C)[C@H](O)[C@H](C)/C=C(C)/C=C/C/C(C)=C/Cc1nc(OC)c(OC)c(O)c1C` [piericidin, reference compound], the “Sensitivity of GOT1-null versus wild-type cells to other ETC inhibitors” value with Jurkat cells is given as “GOT1-null cells die; also recorded: substantially more sensitive”. In series [6], the “Viability of GOT1-null KMS-26 and Raji cells with other mitochondrial toxins” value is “GOT1-null KMS-26 and Raji cells die”.

For `C=C(C)[C@H]1Cc2c(ccc3c2O[C@@H]2COc4cc(OC)c(OC)cc4[C@@H]2C3=O)O1` [rotenone, reference compound], the “Proliferation of cell line panel” value in series [5] was “blocked proliferation”. For the same molecule, the “TCA metabolite” value in the series with 143B cells [3] is “decreases in TCA metabolites and aspartate, but not glutamate”.

Turning to antimycin [reference compound], in series [5], the “Proliferation of cell line panel” value is recorded as “blocked proliferation”. Besides, the “TCA metabolite” value with 143B cells [3] was “decreases in TCA metabolites and aspartate, but not glutamate”. Further, the “Sensitivity of GOT1-null versus wild-type cells to other ETC inhibitors” value in the series on Jurkat cells is listed as “GOT1-null cells die; also recorded: substantially more sensitive”. The “Viability of GOT1-null KMS-26 and Raji cells with other mitochondrial toxins” value in series [6] was “GOT1-null KMS-26 and Raji cells die”.
